Results published in patent US20060292243A1, “Arsenic compounds for the treatment of the arsenic-sensitive blast-cell related diseases” (priority 2005, published 2006).

Tests used:
dsDNA = assay: Serum IgG anti-dsDNA ELISA in SLE model mice; assay type: in vivo, NZB/NZW mice
Procedure: (§1) In vivo studies on the activity of arsenic compound were carried out by using an experimental animal model of human Systemic Lupus Erythematosus. NZB/NZW denotes the mouse strain that spontaneously develops an autoimmune syndrome having notable similarities to human Systemic Lupus Erythematosus. Autoimmune disease in NZB/NZW mice is characterized by antinuclear antibodies (IgG) production about 4 months of age, and glomerulonephritis with proteinuria is developed when at 9 months of age, and that is the major cause of death (uremia).
(§2) At 24 weeks of age, mice (3 groups) were treated 3 times per week with PBS (Group I as positive control), 2.5 mg/kg of As2O3 (Group II), or 5 mg/kg of As2O3 (Group III) administered intraperitoneally. The treatment was stopped at 28 weeks of age. Mice were observed daily for clinical signs of disease and for mortality and were bled every 4 weeks for determination of anti-DNA antibody production.
Standard ELISA assay to measure the serum levels of anti-DNA antibodies was performed as follows. The plates were coated 10 μg/mL mBSA 4° C. overnight before coating dsDNA and ssDNA diluted with PBS to concentration of 7.5 μg/mL. ssDNA was prepared by boiling for 20 min then placed on ice immediately for 20 min. After overnight incubation at 4° C., the plates were washed and blocked with gelatin-PBS solution. The serum was diluted and then added to the appropriate wells, which were then incubated at 37° C. for 45 min. Horseradish peroxidase-comjugated anti-mouse γ-chain-specific antibodies were added. After incubation at 37° C. for 50 min, then room temperature for 10 min, 2,2′-azino-bisC3-ethylbenzthiazoline-6-sulphonic acid (ABTS) solution was used as substrate and the absorbance was measured at 405 nm. The level of anti-DNA IgG is presented as ELISA units (EU/ml) compared with mAb 10F10. The OD value generated by 74 ng/ml of 10F10 Ab was defined as 1 EU/ml for anti-DNA IgG. The level of anti-nucleosome IgG was calculated as EU by comparison with 10F10 Ab. The absorbance value generated by 231 ng/ml of 10F10 Ab was defined as 1 EU/ml of anti-nucleosome IgG.

NZB/NZW mice = assay: Severe glomerulonephritis (proteinuria by urine dipstick) in SLE model mice; assay type: in vivo; conditions: for Mice with severe glomerulonephritis (%): proteinuria more than 1 g/L (2+)
Procedure: as §1, §2
Urine protein levels were determined by colorimetric analysis using dipsticks (Multistix®, Bayer). Severe glomerulonephritis was defined as proteinuria more than 1 g/L (2+) by urine dipstick.

[1] = tested on: cultured human fibroblasts; assay: Cell cycle effect on cultured human fibroblasts (MTT, flowcytometry, western blot, promoter luciferase); assay type: cell-based; conditions: 1 to 10 μM, 24 hr
Text: Arsenic trioxide has been approved for APL (acute promyelocytic leukemia) therapy, and though much work remains to be done on the application of arsenic trioxide and the mechanism of arsenic toxicity is not fully understood, several recent works pointed out the involvement of oxidative stress in arsenic-induced DNA damage in living cells may cause cell cycle arrest.

Trypanosoma brucei = assay: Anti-Trypanosoma test, viable cell count; assay type: cell-based
Procedure: Arsenic trioxide (Asadin®, 10 mg/10 ml/vial) was used to check the toxicity on the Trypanosoma brucei. Viable cell count was microscopically monitored. […] This is one third of recommended dosage of Melarsoprol (an Anti-Trypanosoma drug). Moreover, cytology observation noticed specific death morphology on cell toxicity. […] Further cytology examination on the death cells will be examined.

arsenic trioxide
IgG Anti-dsDNA titer (dsDNA; 2.5 mg/kg i.p. 3 times per week, before treatment): 0.262 ELISA Unit | IgG Anti-dsDNA titer (dsDNA; 2.5 mg/kg, 4 weeks after treatment): 0.572 ELISA Unit | IgG Anti-dsDNA titer (dsDNA; 2.5 mg/kg, 8 weeks after treatment): 0.464 ELISA Unit | IgG Anti-dsDNA titer (dsDNA; 2.5 mg/kg, 12 weeks after treatment): 0.442 ELISA Unit | IgG Anti-dsDNA titer (dsDNA; 5 mg/kg i.p. 3 times per week, before treatment): 0.362 ELISA Unit | IgG Anti-dsDNA titer (dsDNA; 5 mg/kg, 4 weeks after treatment): 0.285 ELISA Unit | IgG Anti-dsDNA titer (dsDNA; 5 mg/kg, 8 weeks after treatment): 0.357 ELISA Unit | IgG Anti-dsDNA titer (dsDNA; 5 mg/kg, 12 weeks after treatment): 0.702 ELISA Unit | anti-DNA antibody levels in sera compared to PBS (Tables 4.1 and 4.2, ssDNA and dsDNA) (dsDNA; NZB/NZW mice, 2.5 or 5 mg/kg): significantly lower anti-DNA antibody levels | onset of severe proteinuria in comparison with untreated animals (NZB/NZW mice; 2.5 mg/kg ATO and 5 mg/kg ATO): marked delay in the onset of severe proteinuria | Mice with severe glomerulonephritis (%) (NZB/NZW mice; 2.5 mg/kg, 37 weeks): 16.67% | Mice with severe glomerulonephritis (%) (NZB/NZW mice; 2.5 mg/kg, 40 weeks): 40% | Mice with severe glomerulonephritis (%) (NZB/NZW mice; 5 mg/kg, 37 weeks): 25% | Mice with severe glomerulonephritis (%) (NZB/NZW mice; 5 mg/kg, 40 weeks): 25% | effect on cell cycle of fibroblasts [1]: cell cycle arrest especially in G2/M | killing effect on Trypanosoma brucei (viable cell count) (Trypanosoma brucei; 0.1 mg/ml/day for 3 days, over 7 days): complete killing effect | death morphology on cytology observation (Trypanosoma brucei; cultured Trypanosoma brucei): Cells became thread-like | killing dosage compared with Melarsoprol (Trypanosoma brucei; cultured Trypanosoma brucei): comparable, if not better | killing potency versus 3 doses regimen (Trypanosoma brucei; one dose regimen of 0.3 mg/ml): less killing potency at least one log difference
